Measured values reported in the NIST ThermoML archive (doi:10.1021/acs.jced.8b01027).
Numbers after ± are expanded uncertainties.

Details: Liquid, Capillary tube (Ostwald / Ubbelohde) method

CCCCCCCCCCO [decan-1-ol]
Details	viscosity [mPa·s]
298.15 K, 2000 kPa	11.25 ± 0.12
298.15 K, 3990 kPa	11.54 ± 0.12
298.15 K, 6010 kPa	11.79 ± 0.12
298.15 K, 8010 kPa	12.05 ± 0.12
298.15 K, 10010 kPa	12.35 ± 0.13
298.15 K, 13010 kPa	12.74 ± 0.13
298.15 K, 16010 kPa	13.16 ± 0.14
298.15 K, 19010 kPa	13.57 ± 0.14
298.15 K, 22010 kPa	14.01 ± 0.14
298.15 K, 25000 kPa	14.46 ± 0.15
298.15 K, 28000 kPa	14.89 ± 0.15
298.15 K, 29990 kPa	15.19 ± 0.16
303.15 K, 1990 kPa	8.895 ± 0.093
303.15 K, 4000 kPa	9.117 ± 0.095
303.15 K, 5980 kPa	9.337 ± 0.097
303.15 K, 8010 kPa	9.562 ± 0.1
303.15 K, 10020 kPa	9.784 ± 0.1
303.15 K, 12980 kPa	10.11 ± 0.11
303.15 K, 15970 kPa	10.44 ± 0.11
303.15 K, 19020 kPa	10.78 ± 0.11
303.15 K, 22000 kPa	11.11 ± 0.12
303.15 K, 24980 kPa	11.44 ± 0.12
303.15 K, 27980 kPa	11.77 ± 0.12
303.15 K, 30010 kPa	12 ± 0.12
313.15 K, 2030 kPa	6.219 ± 0.066
313.15 K, 4020 kPa	6.374 ± 0.067
313.15 K, 6000 kPa	6.526 ± 0.069
313.15 K, 7980 kPa	6.68 ± 0.071
313.15 K, 9980 kPa	6.835 ± 0.072
313.15 K, 12990 kPa	7.068 ± 0.074
313.15 K, 15990 kPa	7.299 ± 0.077
313.15 K, 18990 kPa	7.532 ± 0.079
313.15 K, 22010 kPa	7.766 ± 0.082
313.15 K, 25020 kPa	7.999 ± 0.084
313.15 K, 28020 kPa	8.231 ± 0.086
313.15 K, 29980 kPa	8.382 ± 0.088
323.15 K, 2000 kPa	4.735 ± 0.051
323.15 K, 4010 kPa	4.857 ± 0.052
323.15 K, 6010 kPa	4.97 ± 0.053
323.15 K, 8010 kPa	5.091 ± 0.055
323.15 K, 9990 kPa	5.202 ± 0.056
323.15 K, 13010 kPa	5.369 ± 0.057
323.15 K, 16010 kPa	5.54 ± 0.059
323.15 K, 19020 kPa	5.726 ± 0.061
323.15 K, 22020 kPa	5.892 ± 0.063
323.15 K, 25010 kPa	6.072 ± 0.064
323.15 K, 28000 kPa	6.247 ± 0.066
323.15 K, 30010 kPa	6.373 ± 0.067
